Test results from patent publication US20110003883A1, “ALLOSTERIC TRANS-SPLICING GROUP I RIBOZYME WHOSE ACTIVITY OF TARGET-SPECIFIC RNA REPLACEMENT IS CONTROLLED BY THEOPHYLLINE” (Industry-Academic Cooperation Foundation, Dankook University, priority 2008, published 2011).

Experiments:
[1] = tested on: Capan-1 cells; assay: MTT assay in Capan-1 cells (hTERT+); format: cell-based, human; conditions: Capan-1 cells with Ad-TheoRib-TK
Experimental: (§1) Cells were seeded in a 96 well plate (TPP) for 1 day, and then infected with Ad-TK (an adenoviral vector expressing a TK gene under the control of a CMV promoter), Ad-Rib-TK, Ad-TheoRib-TK, and Ad-LacZ (an adenoviral vector expressing a LacZ gene under the control of a CMV promoter) adenoviruses, respectively. The used media supplemented with GCV and a chemical (theophylline or caffeine) were exchanged with the same new media from every second to fifth day from the day after the virus infection. The HT-29 strain was seeded at a cell number of 3×10^3/well, the HepG2 strain was seeded at a cell number of 3×10^3/well, the Capan-1 strain was seeded at a cell number of 5×10^3/well, and the IMR90 strain was seeded at a cell number of 5×10^3/well. 5 days after the seeding of the strains, CellTiter 96® AQueous ONE Solution Cell Proliferation Assay (Promega) was added to each cell medium so that it amounted to 20% of the total medium, and the 96 wells were treated with 100 μl of resulting cell medium per well, and measured at a wavelength of 490 nm, using a Microplate reader model 550 (BioRad), to observe cell viability of the cells. […]

[2] = tested on: HepG2 cells; assay: MTT assay in HepG2 cells (hTERT+); format: cell-based, human; conditions: HepG2 cells with Ad-TheoRib-TK
Experimental: as §1

[3] = tested on: HT-29 cells; assay: MTT assay in HT-29 cells (hTERT+); format: cell-based, human; conditions: HT-29 cells with Ad-TheoRib-TK
Experimental: as §1

[4] = tested on: theophylline aptamer; conditions: cited from earlier work

SMILES | optimum condition for allosterically induced gene expression: concentration [1] [µM] | optimum condition for allosterically induced gene expression: concentration [2] [µM] | optimum condition for allosterically induced gene expression: concentration [3] [µM] | affinity to the theophylline aptamer, lower than theophylline [4] [times]
Nc1nc(O)c2ncn(COC(CO)CO)c2n1 [GCV, ganciclovir] | 50 | 10 | 10 | –
Cn1c(=O)c2c(ncn2C)n(C)c1=O [caffeine] | – | – | – | 1000
Cn1c(=O)c2[nH]cnc2n(C)c1=O [theophylline] | 500 | 10 | 100 | –
